EPA's ToxValDB 9.5
Several values for one entry are separate records, joined by “and”; a condition that tells them apart may be missing. Equal values may be shown once.

Legend:
[1] = test system: Rattus norvegicus
[2] = test system: Rattus norvegicus; details: oral; for NOEL: subchronic, gavage
[3] = test system: Mus musculus
[4] = test system: Rattus norvegicus; details: oral
[5] = test system: Mus musculus; details: reproduction developmental; oral; drinking water; F; Nod/Shilt; generation: F1; F1: Endocrine: Blood: Glucose (GLU) + F1: Endocrine: Multiple Organs: Diabetes + F1: Endocrine: Pancreas: Insulitis
[6] = test system: Rattus norvegicus; details: oral, gavage, Crl:CD(SD)
[7] = reproduction developmental, oral, M/F, reduced fertility in the F1/F2b generation + Reduced relative kidney weights in F0, F1, and F2b adults
[8] = subchronic, oral, gavage, M/F, hepatic lesions
[9] = short-term, duration: 14 days, oral, gavage, M, CD1, hepatic
[10] = subchronic, oral, M/F, renal and hepatotoxicity
[11] = reproduction developmental, oral, drinking water, M/F, neurodevelopmental effects
[12] = chronic, duration: 2 years, inhalation, M/F, no effects
[13] = short-term, inhalation, M/F, degeneration of olfactory epithelium
[14] = developmental, duration: 46 days, gavage, F, Developmental: Decreased body weight in pups on PNDs 0 and 4 (13-19% in males and 12-16% in females)
[15] = subchronic, duration: 46 days, gavage, M/F, Body Weight: Decreased body weight (~10%) in males during exposure and recovery and in satellite females during dosing (~23% on day 40) and …
[16] = developmental, F, generation: F1, F1: Developmental: Whole Body: Pup Weight Relative to Litter (PND 0) + F1: Developmental: Whole Body: Pup Weight Relative to Litter (PND 4)
[17] = developmental, M/F, generation: F1, F1: Developmental: Whole Body: Live Birth Index + F1: Developmental: Whole Body: Live Pups Born + F1: Developmental: Whole Body: No. Live …
[18] = developmental, M, generation: F1, F1: Developmental: Whole Body: Pup Weight Relative to Litter (PND 0) + F1: Developmental: Whole Body: Pup Weight Relative to Litter (PND 4)
[19] = reproduction developmental, duration: 42 days, M, generation: P0, P0: Blood: Albumin/Globulin (A/G) Ratio + P0: Liver: Cholesterol (CHOL), Total, Blood + P0: Liver: Hepatocellular Hypertrophy + P0: Liver: …
[20] = reproduction developmental, duration: 46 days, F, generation: F1, F1: Whole Body: Pup Weight Relative to Litter (PND 0) + F1: Whole Body: Pup Weight Relative to Litter (PND 4)
[21] = reproduction developmental, duration: 46 days, F, generation: P0, P0: Liver: Cholesterol (CHOL), Total, Blood + P0: Liver: Phospholipid
[22] = reproduction developmental, duration: 46 days, M, generation: F1, F1: Whole Body: Pup Weight Relative to Litter (PND 0) + F1: Whole Body: Pup Weight Relative to Litter (PND 4)
[23] = reproduction developmental, F, generation: P0, P0: Developmental: Uterus: Implantation + P0: Developmental: Uterus: Implantation Index + P0: Hepatic: Blood: Albumin/Globulin (A/G) Ratio…
[24] = reproduction developmental, F, generation: P0, P0: General Toxicity: Whole Body: Clinical Observations + P0: General Toxicity: Whole Body: Maternal Body Weight Change + P0: Other Systems…
[25] = reproduction developmental, M, generation: P0, P0: General Toxicity: Whole Body: Body Weight Change + P0: General Toxicity: Whole Body: Clinical Observations + P0: Other Systems: Bone: …
[26] = reproduction developmental, M, generation: P0, P0: Hepatic: Blood: Albumin/Globulin (A/G) Ratio + P0: Hepatic: Liver: Alanine Aminotransferase (ALT) + P0: Hepatic: Liver: Albumin (A) + P0…
[27] = chronic, duration: 2 years, oral, diet, M/F, reduced body weight
[28] = developmental, inhalation, M/F, reduced pup weight in the f1 and f2 generations
[29] = short-term, duration: 28 days, M, Sprague-Dawley, Endocrine: Hyperplasia/hypertrophy of follicular epithelium of the thyroid
[30] = short-term, duration: 28 days, M, Sprague-Dawley, Neurological: Delayed pupillary reflex
[31] = subchronic, oral, M/F, myocardial degeneration, hepatotoxicity and nephrotoxicity
[32] = chronic, duration: 2 years, oral, diet, M/F, decreased body weight gain increased plantar ulcer (females)

SMILES: COC(=O)C(C)Oc1ccc(Oc2ncc(C(F)(F)F)cc2Cl)cc1 (centres undefined) [Haloxyfop-methyl]
- LEL [1, 7]: 0.05 mg/kg-day
- NOEL [1, 7]: 0.005 mg/kg-day

SMILES: ClC(Br)Br [Chlorodibromomethane]
- NOEL ([2]; duration: 13 weeks, M/F, Fischer 344, Deaths + Histopathology: Liver-Vacuolar change Liver/bile duct- Hyperplasia Liver/centrilobular - necrosis Kidney-Toxic nephropathy Salivary…): 30 mg/kg-day
- LOAEL [1, 8]: 60 mg/kg-day
- NOEL [1, 8]: 21.4 mg/kg-day and 30 mg/kg-day
- LOAEL [3, 9]: 37 mg/kg-day
- LOAEL ([4]; chronic, duration: 2 years, gavage, M/F, Fischer 344, hepatic): 40 mg/kg-day

SMILES: C#CCO [Propargyl alcohol]
- LOAEL [1, 10]: 15 mg/kg-day
- NOAEL [1, 10]: 5 mg/kg-day

SMILES: [O-][Cl+][O-] [Chlorite]
- LOAEL [1, 11]: 6 mg/kg-day
- NOAEL [1, 11]: 3 mg/kg-day
- NOAEL ([4]; developmental, duration: 16 weeks, drinking water, M/F, Sprague-Dawley, developmental): 2.9 mg/kg-day

SMILES: CCOP(=O)(OCC)SCCSCC.CCOP(=S)(OCC)OCCSCC [Demeton]
- LEL ([1]; chronic, duration: 2 years, oral, diet, M/F, cholinesterase inhibition, optic nerve degeneration): 0.04 mg/kg-day

SMILES: CC(F)(F)Cl [1-Chloro-1,1-difluoroethane]
- NOAEL [1, 12]: 82600 mg/m3

SMILES: CC(F)F [1,1-Difluoroethane]
- NOAEL [1, 12]: 67500 mg/m3

SMILES: CN(C)N [1,1-Dimethylhydrazine]
- LOAEL ([3]; chronic, duration: 6 months, inhalation, F, C57BL/6, hepatic): 0.123 mg/m3

SMILES: CC=O [Acetaldehyde]
- NOAEL ([2]; short-term, duration: 28 days, drinking water, M/F, Wistar, Food Consumption: decrease + Water Consumption: decrease + Blood Chemistry: BUN increase, T-Bil decrease, ALT decrease, ALP decrease + …): 125 mg/kg-day
- LOAEL [1, 13]: 728 mg/m3
- NOAEL [1, 13]: 273 mg/m3

SMILES: O=C(O)C(F)(F)C(F)(F)C(F)(F)C(F)(F)C(F)(F)C(F)(F)C(F)(F)C(F)(F)C(F)(F)C(F)(F)F [Perfluoroundecanoic acid]
- NOEL ([2]; M, Sprague-Dawley, Body Weight Changes: Body weight gain decrease + Hematology: Fibrinogen decrease + Blood Chemistry: BUN increase, ALP increase, TP decrease…): 0.1 mg/kg-day
- LOAEL [4, 14]: 1 mg/kg-day
- NOAEL [4, 14]: 0.3 mg/kg-day
- LOAEL [4, 15]: 1 mg/kg-day
- NOAEL [4, 15]: 0.3 mg/kg-day
- NOAEL ([4]; subchronic, duration: 46 days, gavage, M/F, Hepatic: Increased absolute and relative liver weight and centrilobular hypertrophy at 1.0 mg/kg/day): 1 mg/kg-day
- LOAEL [5]: 0.042 mg/kg-day
- NOAEL [5]: 0.004 mg/kg-day
- LOAEL [6, 16]: 0.3 mg/kg-day
- NOAEL [6, 16]: 0.1 mg/kg-day
- LOAEL [6, 17]: 0.3 mg/kg-day
- NOAEL [6, 17]: 0.1 mg/kg-day
- LOAEL [6, 18]: 0.3 mg/kg-day
- NOAEL [6, 18]: 0.1 mg/kg-day
- NEL ([6]; reproduction developmental, duration: 42 days, M, generation: P0, P0: Adrenal: Adrenal Gland Histopathology + P0: Adrenal: Adrenal Gland Weight, Absolute + P0: Adrenal: Adrenal Gland Weight, Relative + P0: …): 1 mg/kg-day
- LEL ([6]; reproduction developmental, duration: 42 days, M, generation: P0, P0: Adrenal: Adrenal Gland Weight, Absolute, Recovery + P0: Blood: Activated Partial Thromboplastin Time (APTT) + P0: Blood: Calcium (CA), …): 1 mg/kg-day
- NEL ([6]; reproduction developmental, duration: 42 days, M, generation: P0, P0: Blood: Activated Partial Thromboplastin Time (APTT) + P0: Blood: Calcium (CA), Blood + P0: Blood: Fibrinogen + P0: Blood: Mean …): 0.3 mg/kg-day
- LEL [6, 19]: 0.3 mg/kg-day
- NEL [6, 19]: 0.1 mg/kg-day
- LEL ([6]; reproduction developmental, duration: 42 days, M, generation: P0, P0: Blood: Platelets (PLT)): 0.1 mg/kg-day
- LEL [6, 20]: 1 mg/kg-day
- NEL [6, 20]: 0.3 mg/kg-day
- NEL ([6]; reproduction developmental, duration: 46 days, F, generation: P0, P0: Adrenal: Adrenal Gland Histopathology + P0: Adrenal: Adrenal Gland Weight, Absolute + P0: Adrenal: Adrenal Gland Weight, Relative + P0: …): 1 mg/kg-day
- LEL ([6]; reproduction developmental, duration: 46 days, F, generation: P0, P0: Adrenal: Adrenal Gland Weight, Absolute, Recovery + P0: Blood: Fibrinogen + P0: Blood: Mean Corpuscular Hemoglobin (MCH) + P0: Blood: …): 1 mg/kg-day
- NEL ([6]; reproduction developmental, duration: 46 days, F, generation: P0, P0: Blood: Fibrinogen + P0: Blood: Mean Corpuscular Hemoglobin (MCH) + P0: Blood: Mean Corpuscular Volume (MCV) + P0: Kidney: Blood Urea …): 0.3 mg/kg-day
- LEL ([6]; reproduction developmental, duration: 46 days, F, generation: P0, P0: Blood: Total Protein (TP), Blood + P0: Thymus: Thymus Histopathology): 0.1 mg/kg-day
- LEL [6, 21]: 0.3 mg/kg-day
- NEL [6, 21]: 0.1 mg/kg-day
- NEL ([6]; reproduction developmental, duration: 46 days, M/F, generation: F1, F1: Whole Body: Live Birth Index + F1: Whole Body: Live pups (PND 4) + F1: Whole Body: Live Pups Born + F1: Whole Body: Male Pups per Pups …): 1 mg/kg-day
- LEL [6, 22]: 1 mg/kg-day
- NEL [6, 22]: 0.3 mg/kg-day
- LOAEL ([6]; reproduction developmental, F, generation: P0, P0: Cardiovascular: Heart: Heart Histopathology + P0: Cardiovascular: Heart: Heart Weight, Absolute + P0: Cardiovascular: Heart: Heart …): 0.3 mg/kg-day
- LOAEL [6, 23]: 0.3 mg/kg-day
- NOAEL [6, 23]: 0.1 mg/kg-day
- LOAEL [6, 24]: 1 mg/kg-day
- NOAEL [6, 24]: 0.3 mg/kg-day
- LOAEL ([6]; reproduction developmental, M, generation: P0, P0: Cardiovascular: Heart: Heart Histopathology + P0: Cardiovascular: Heart: Heart Weight, Absolute + P0: Cardiovascular: Heart: Heart …): 0.3 mg/kg-day
- LOAEL [6, 25]: 1 mg/kg-day
- NOAEL [6, 25]: 0.3 mg/kg-day
- LOAEL [6, 26]: 0.3 mg/kg-day
- NOAEL [6, 26]: 0.1 mg/kg-day

SMILES: COc1nc(C)nc(NC(=O)NS(=O)(=O)c2ccccc2Cl)n1 [Chlorsulfuron]
- LEL [1, 27]: 25 mg/kg-day
- NOEL [1, 27]: 5 mg/kg-day

SMILES: NN [Hydrazine]
- LOAEL ([3]; chronic, duration: 6 months, inhalation, F, ICR, hepatic): 0.262 mg/m3

SMILES: BrC(Br)Br [Bromoform]
- LOAEL [1, 8]: 50 mg/kg-day
- NOEL [1, 8]: 25 mg/kg-day and 17.9 mg/kg-day
- NOAEL [3, 9]: 72 mg/kg-day
- LOAEL ([4]; chronic, duration: 103 weeks, gavage, M/F, Fischer 344, hepatic): 100 mg/kg-day
- NOAEL ([4]; subchronic, duration: 13 weeks, gavage, M/F, Fischer 344, hepatic): 25 mg/kg-day

SMILES: C1CCCCC1 [Cyclohexane]
- LOAEL [1, 28]: 24100 mg/m3
- NOAEL [1, 28]: 6890 mg/m3

SMILES: O=C(O)C(F)(F)C(F)(F)C(F)(F)F [Perfluorobutanoic acid]
- NOAEL ([1]; subchronic, duration: 90 days, oral, gavage, M, Sprague-Dawley, Increased hepatocellular hypertrophy (Liver), Decreased total T4 (Thyroid)): 6 mg/kg-day
- LOAEL ([3]; developmental, duration: 18 days, oral, gavage, CD1, Developmental: Eye opening delayed approximately 1 day): 35 mg/kg-day
- NOAEL ([3]; reproduction developmental, duration: 18 days, oral, gavage, CD1, Hepatic: Significant increase in absolute and relative liver weight at ?[…]): 350 mg/kg-day
- NOAEL ([3]; short-term, duration: 10 days, oral, diet, M, Hepatic: 63% increase in absolute liver weight): 78 mg/kg-day
- NOAEL ([4]; short-term, duration: 5 days, gavage, M/F, Sprague-Dawley, Immunotoxicological: No histological alterations + Neurological: No histological alterations + Reproductive: No histological alterations): 184 mg/kg-day
- NOAEL ([4]; short-term, duration: 14 days, diet, M, Sprague-Dawley, Hepatic: Biochemical and ultrastructural evidence of peroxisome proliferation): 20 mg/kg-day
- NOAEL ([4]; short-term, duration: 28 days, M/F, Sprague-Dawley, Hepatic: Increased absolute and relative liver weight and decreased serum cholesterol in males at ?30 mg/kg/day / hepatocellular …): 150 mg/kg-day
- LOAEL [4, 29]: 30 mg/kg-day
- NOAEL [4, 29]: 6 mg/kg-day
- LOAEL [4, 30]: 150 mg/kg-day
- NOAEL [4, 30]: 30 mg/kg-day
- NOAEL ([4]; subchronic, duration: 90 days, M/F, Sprague-Dawley, Hematological: Reduced erythrocyte counts (3.8%), hemoglobin (5.7%), and hematocrit (4.5%)): 6 mg/kg-day
- NOAEL ([4]; subchronic, duration: 90 days, M/F, Sprague-Dawley, Hepatic: Diffuse panlobular hepatocyte hypertrophy at 30 mg/kg/day in males + Immunotoxicological: No histological alterations + …): 30 mg/kg-day
- NOAEL ([4]; subchronic, duration: 90 days, M, Sprague-Dawley, Endocrine: Hypertrophy/hyperplasia of follicular epithelium of the thyroid gland): 6 mg/kg-day
- LOAEL ([4]; subchronic, duration: 90 days, M, Sprague-Dawley, Endocrine: Hypertrophy/hyperplasia of follicular epithelium of the thyroid gland + Hematological: Reduced erythrocyte counts (3.8%), …): 30 mg/kg-day

SMILES: OCC(Cl)CCl (centres undefined) [2,3-Dichloro-1-propanol]
- LOAEL [1, 31]: 35 mg/kg-day
- NOAEL [1, 31]: 10 mg/kg-day

SMILES: CC(C)C(Nc1ccc(C(F)(F)F)cc1Cl)C(=O)OC(C#N)c1cccc(Oc2ccccc2)c1 (centres undefined) [Fluvalinate]
- LEL [1, 32]: 2.5 mg/kg-day
- NOEL [1, 32]: 1 mg/kg-day
